Entries after “also recorded” stand apart in the source; their conditions may differ. Like-named read-outs stand apart in the source and are kept apart here. No end group written: not given here.
What was measured:
[1] = test system: NSC-34 cells; experiment: LDH assay (cytotoxicity) in NSC-34 cells; assay type: cell-based; conditions: for DRP-induced toxicity: incubated 24 hours; for toxicity: DRP concentrations as low as 300 nM
Text: LDH Assay: The LDH assay is a colorimetric assay that measures cell toxicity and death. […] When cells lose membrane integrity, an enzyme found in living cells called lactate dehydrogenase (LDH) is released into the solution surrounding the dying cell. A form of programmed cell death, apoptosis, as well as other forms of cell death also ultimately lead to a cell's membrane being destroyed, resulting in a large release of LDH into the extracellular space. Thus, LDH is an excellent marker not only for necrosis, but for all instances of cell death. In an LDH assay, a sample of the solution surrounding the cell is isolated, and transferred to a plate containing an LDH reaction mixture. This reaction mixture contains a tetrazolium salt intermediate and other reaction constituents that, when exposed to LDH, convert the tetrazolium salt into a colored Formazan product. This Formazan product can be quantified spectrophotometrically. Greater absorbance readings correspond to more cell death.
One row on the top and bottom of the plate, and two columns on either side of the plate, were left without cells and contained culture medium only to minimize experimental well volume evaporation. After plating, cells were incubated for 24 h at 37° C., 5% CO2 prior to DRP and/or PRMT inhibitor addition. At time of DRP/PRMT inhibitor addition, desired doses of DRP for challenge and inhibitor for treatment were achieved by diluting aliquots of each stock in warm culture medium. During experiments where both PRMT inhibitors and DRPs were used, PRMT inhibitors were always applied to wells first, and followed by DRP application. […] Inhibitor toxicity controls were included as wells treated with the desired doses of drug for the experiment, but no DRP. DRP toxicity controls were included as wells only treated with the doses of DRP used for challenge. Once dosed, plates were incubated for 24 h at 37° C., 5% CO2 prior to running the WST-1 or LDH assay endpoints. Additional controls needed for each endpoint are specified in the “WST-1 Assay” and “LDH Assay” sections of these methods.
LDH Assay: Cells were plated and prepared using the steps described in the “Plating NSC-34 and Dosing with DRPs and PRMT Inhibitors” section of these methods. Other controls for this experiment included several sets of wells with only cells in culture medium (one triplicate designated for “untreated,” one triplicate designated for “lysed” positive control), and wells with culture medium only. An additional control added only to the transfer plate at time of testing was 5 μL LDH only. Testing was performed using colorimetric LDH-Cytotoxicity Assay Kit II (Abcam, Cambridge, MA, USA) per manufacturer's instructions. Final read at 450 nm was performed on a SpectraMax M3 Microplate Reader (Molecular Devices, San Jose, CA, USA). Data analysis included calculation of % LDH release using the following equation: […]
Experiments included three replicates per condition. Each experiment was repeated twice (executed three times total).
(§1) The following conditions were plated in triplicate.
Plates were incubated for 24 h at 37° C., 5% CO2. Cells were tested and data were analyzed by LDH assay.
(§2) Cells were plated in culture medium in 2 96-well plates at a density of 3.7×10^4 cells per well, and incubated overnight at 37° C., 5% CO2.
as §1
Cells were plated in culture medium in 2 96-well plates at a density of 3.7×10^4 cells per well, and incubated overnight at 37° C., 5% CO2. […]
The following conditions were plated in triplicate. […]

[2] = test system: NSC-34 cells; experiment: BrdU ELISA (proliferation) in NSC-34 cells; assay type: cell-based, Mouse; conditions: for effect of DRP on proliferation activity: compared to DMSO-treated controls; for abrogation of GR-induced proliferation inhibition: 300 nM GR15, 24 h
Description: BrdU ELISA: The BrdU ELISA is an ELISA detecting cell proliferation activity. BrdU is a pyrimidine analog that, when inside the cell, can be incorporated instead of thymidine into newly synthesized strands of DNA. Just as is indicated by thymidine incorporation into DNA, BrdU incorporation into cell DNA indicates DNA synthesis activity, which is required for cell proliferation. In the BrdU ELISA, cells are treated with test compounds as well as BrdU reagent, and then incubated for 24 hours before testing. During testing, an anti-BrdU antibody detects the incorporation of BrdU into cell DNA that occurred over the 24-hour period, as a surrogate for cell proliferation activity. This anti-BrdU antibody is then labelled with a secondary antibody tagged with a colored substrate, which can be quantified spectrophotometrically. Greater absorbance readings correspond to more cell proliferation activity.
as §2, §1
Plates were incubated for 24 h at 37° C., 5% CO2. Cells were tested and data were analyzed using the procedure detailed in BrdU ELISA kit instructions.
Cells were plated in culture medium in 2 96-well plates at a density of 5×10^4 cells per well, and incubated overnight at 37° C., 5% CO2. […] 10 μL of each concentration would be added to 100 μL base media in plate to achieve final concentrations of 3, 1, 0.3, 0.1, 0.03, and 0.01 μM DRP.
The following conditions were plated in triplicate. Samples were surrounded by border wells on the outside of the plate filled with sterile Phosphate-buffered saline to prevent evaporation of volume in experimental wells during incubation; • Culture medium only • Background (Cells only in culture medium, without BrdU reagent) • Untreated (Cells only in culture medium, with BrdU reagent) • DMSO Controls (Cells treated with BrdU reagent and the amount of DMSO that DRP-treated cells were exposed to at each concentration) • i. The DMSO controls tested were as follows, corresponding to DRP doses starting at the highest (3 μM to the lowest 0.01 μM), and were diluted in culture medium: • 1. 0.03% DMSO • 2. 0.01% DMSO • 3. 0.003% DMSO • 4. 0.001% DMSO • 5. 0.0003% DMSO • 6.

Compound: PRPRPRPRPRPRPRPRPRPRPRPRPRPRPR [PR15]
- EC50 ([1]; 24 h): 56 ± 20 nM
- DRP-induced toxicity ([1]; DRP 0.01-3 μM): produced significant, dose-dependent toxicity
- toxicity ([1]; 24 h): approximately 10%
- rank among DRPs as inhibitor of proliferative activity ([2]; DRP 0.01-3 μM, 24 h): the strongest inhibitor
- effect of DRP on proliferation activity ([2]; DRP 0.01-3 μM, 24 h): significantly suppressed proliferative activity in a dose-dependent manner

Compound: CC(C)Oc1ccc(-c2c[nH]cc2CN(C)CCN)cc1 [MS023]
- effect on GR15-induced cytotoxicity ([1]; 300 nM GR15, 24 h, MS023 60 and 30 μM): significantly amplified cytotoxicity
- abrogation of PR-induced cytotoxicity ([1]; 300 nM PR15, 24 h, all doses applied (1-60 μM)): at least partially abrogated
- abrogation of ADMe-GR15-induced cytotoxicity ([1]; 3 μM ADMe-GR15, 24 h, MS023 0.1-10 μM): did not abrogate
- abrogation of GR-induced toxicity ([1]; 3 μM GR15, 24 h, all tested doses (1-60 μM)): partially abrogated
- dose dependence of abrogation of GR15-induced cytotoxicity ([1]; 3 μM GR15, 24 h, dose range of the example): potently, and dose-dependently abrogated; also recorded: consistently dose-dependently abrogated
- abrogation of GR-induced toxicity ([1]; 3 μM GR15, 24 h, doses 0.01, 0.03, 0.1 and 0.3 μM): partially abrogated
- abrogation of GR-induced toxicity ([1]; 3 μM GR15, 24 h, doses 0.3, 1 and 3 μM): completely abrogated
- abrogation of GR15-induced cytotoxicity ([1]; 3 μM GR15, 24 h, doses 1 and 3 μM): completely abrogated
- relative potency against GR- vs PR-induced toxicity ([1]; 3 μM GR15 or PR15, 24 h, MS023 0.01-3 μM): more potently abrogated PR-induced toxicity
- dose dependence of abrogation of PR15-induced cytotoxicity ([1]; 3 μM PR15, 24 h, dose range of the example): potently, and dose-dependently abrogated
- abrogation of PR-induced toxicity ([1]; 3 μM PR15, 24 h, doses 0.01, 0.03 and 0.1 μM): partially abrogated
- abrogation of PR-induced toxicity ([1]; 3 μM PR15, 24 h, doses 0.03, 0.1, 0.3, 1 and 3 μM): completely abrogated
- abrogation of PR-induced cytotoxicity ([1]; 3 μM PR15, 24 h, doses 1 and 3 μM): fully abrogated; also recorded: completely abrogated
- abrogation of PR-induced cytotoxicity ([1]; 3 μM PR15, 24 h, doses 10, 30 and 60 μM): partially abrogated
- cytotoxicity of inhibitor alone ([1]; no DRP, highest dose 60 μM): did produce significant cytotoxicity
- abrogation of GR-induced proliferation inhibition ([2]; all doses (1-60 μM)): partially abrogated
- abrogation of GR-induced proliferation inhibition ([2]; dose 3 μM): fully rescuing
- excessive proliferation ([2]; 300 nM GR15 or PR15, 24 h, all doses tested (1-60 μM)): without inducing excessive proliferation
- abrogation of PR-induced proliferation inhibition ([2]; 300 nM PR15, 24 h, all doses (1-60 μM)): fully abrogated

Compound: GRGRGRGRGRGRGRGRGRGRGRGRGRGRGR [GR15]
- cytotoxicity induced by DRP challenge ([1]; DRP 10 nM-3 μM, 24 h): induced dose-dependent cytotoxicity
- EC50 ([1]; DRP 0.01-3 μM, 24 h, read-out: EC50 of DRP-induced toxicity): 50 ± 26 nM
- DRP-induced toxicity ([1]; DRP 0.01-3 μM): produced significant, dose-dependent toxicity
- toxicity ([1]; 24 h): approximately 10%
- effect of DRP on proliferation activity ([2]; DRP 0.01-3 μM, 24 h): significantly suppressed proliferative activity in a dose-dependent manner

— patent publication US12318365B2, “Inhibition of dipeptide repeat proteins” (ALS Therapy Development Institute, priority 2019, dated 2025)
